Reference: patent US20220105150A1, “AMPHIPATHIC ALPHA-HELICAL ANTIMICROBIAL PEPTIDES TREAT INFECTIONS BY GRAM-NEGATIVE PATHOGENS” (priority 2019, published 2022)
Values after ≈ are worked out from the molar mass of the structure shown. Square brackets hold non-standard residues; d marks the D form. Peptide text beside a SMILES is read from it. Dab = NCC[C@H](N)C(=O)O; Dap = NC[C@H](N)C(=O)O

Test system: Acinetobacter baumannii strains resistant to Polymyxin B and Colistin
Settings: strains resistant to Polymyxin B and Colistin, 24 h
Source text: The coupling procedure used 5 equivalents of Fmoc-D-amino acid or Fmoc-L-amino acid and HCTU (O-(1H-6-chlorobenzotriazole-1-yl)-1,1,3,3-tetramethyluronium hexafluorophosphate) and 6-Cl-HOBt (1-hydroxy-6-chloro-benztriazole) at 4.5 equivalents in DMF (Fisher Scientific, Denver, Colo.) and N-diisopropylethylamine (DIPEA) 10 equivalents (Oakwood Products, Inc., Estill, S.C.) in N-methyl-2-pyrrolidinone (NMP) (Fisher Scientific, Denver, Colo.) with the first and second couplings at room temperature for 30 min each. The deprotection procedure (removal of Fmoc protecting group) was carried out by treatment of the resin with 0.1 M HOBt (1-hydroxybenzotriazole) in DMF with 20% piperidine for 30 min. […] The resin was removed by filtration and peptide was precipitated with ice-cooled ethyl ether on ice for 15 min. Ether was decanted, the peptide was washed twice with ether and redissolved in acetonitrile/water (1:1, with 0.2% TFA) and the solution lyophilized to obtain the crude peptide. • Analytical and Preparative Purification by Reversed-Phase Chromatography: Analytical RP-HPLC: Column, Luna C18 (2), 250×4.6 mm I.D., 5 μm particle size, 100 Å pore size from Phenomenex (Torrance, Calif.). Run conditions: linear AB gradient (1% acetonitrile/min, starting from 2% acetonitrile) at a flow-rate of 1 ml/min, where eluent A is 0.2% aq. TFA and eluent B is 0.18% TFA in acetonitrile; temperature, 30° C. Preparative RP-HPLC: Peptides were dissolved in 0.2% aq. TFA containing 2% acetonitrile to a final concentration of 10 mg/ml. Following filtration through a 0.45 μm Millipore filter and subsequently through a 0.22 μm filter, the peptide solutions were loaded onto the column via multiple 20-ml injections into a 20-ml injection loop at a flow-rate of 10 ml/min. Column, Luna C18 (2), 250×30 mm I.D., 5 um particle size, 100 Å pore size from Phenomenex. Run conditions: 2% acetonitrile/min gradient up to an acetonitrile concentration 10% below that required to elute the peptide during analytical RP-HPLC, then shallow gradient elution (0.05% or 0.1% acetonitrile/min depending on the complexity of impurities near the product of interest on the analytical run of the crude peptide) at a flow-rate of 10 ml/min (same eluents as shown above for analytical RP-HPLC); at room temperature. • Temperature Profiling of Peptides on Reversed-phase HPLC to Measure Dimerization and Oligomerization: Purified peptides were analyzed on an Agilent 1200 series liquid chromatograph for temperature profiling using a Zorbax 300 SB-C8 column (150 mm×2.1 mm I.D.; 5 μm particle size, 300 Å pore size) from Agilent Technologies. […] Temperature profiling was carried out on peptide mixtures run at each temperature in 2° C. increments from 5° C. to 41° C. and 10° C. increments from 5° C. to 75° C. Twenty minutes was allowed between runs for temperature equilibration. • Characterization of Helical Structure: The mean residue molar ellipticities of peptides were determined by circular dichroism (CD) spectroscopy, using a Jasco J-815 spectropolarimeter (Jasco Inc. Easton, Md., USA) at 5° C. under KP buffer (50 mM NaH2PO4/Na2HPO4/100 mM KCl, pH 7.0) as well as in the presence of an α-helix inducing solvent, 2,2,2-trifluoroethanol, TFE, (50 mM NaH2PO4/Na2HPO4/100 mM KCl, pH 7.0 buffer/50% TFE). A 10-fold dilution of an approximately 500 μM stock solution of the peptide analogs was loaded into a 0.1 cm quartz cell and its ellipticity scanned from 195 to 250 nm.

Structure (SMILES) | MIC MB9941 | MIC MB9949 | MIC MB9951 | MIC MB9952 | MIC MB9953 | MIC MB9955 | MIC MB9963
CC(=O)N[C@H](CCCCN)C(=O)N[C@H](CC(C)C)C(=O)N[C@@H](CN)C(=O)N[C@H](CO)C(=O)N[C@H](CC(C)C)C(=O)N[C@H](CC(C)C)C(=O)N[C@@H](CN)C(=O)N[C@@H](C(=O)N[C@H](CC(C)C)C(=O)N[C@H](CO)C(=O)N[C@H](C)C(=O)N[C@H](C)C(=O)N[C@H](CCCCN)C(=O)N[C@@H](CN)C(=O)N[C@@H](CN)C(=O)N[C@H](CCCCN)C(=O)N[C@H](CC(C)C)C(=O)N[C@H](C)C(=O)N[C@@H](C(=O)N[C@H](CC(C)C)C(=O)N[C@H](CC(C)C)C(=O)N[C@@H](CN)C(=O)N[C@H](C)C(=O)N[C@H](CC(C)C)C(=O)N[C@H](CO)C(=O)N[C@@H](CN)C(N)=O)[C@H](C)O)[C@H](C)O [D106(Lys^1-6 Dap-2), Ac-KL(L-Dap)SLL(L-Dap)TLSAAK(L-Dap)(L-Dap)KLATLL(L-Dap)ALS(L-Dap)-amide] (Ac-[dK][dL][Dap][dS][dL][dL][Dap][dT][dL][dS][dA][dA][dK][Dap][Dap][dK][dL][dA][dT][dL][dL][Dap][dA][dL][dS][Dap]-NH2) | 0.8 µM (≈ 2.09 µg/mL) | 0.8 µM (≈ 2.09 µg/mL) | 1.5 µM (≈ 3.92 µg/mL) | 0.8 µM (≈ 2.09 µg/mL) | 0.8 µM (≈ 2.09 µg/mL) | 0.4 µM (≈ 1.05 µg/mL) | 0.8 µM (≈ 2.09 µg/mL)
CC(=O)N[C@H](CCCCN)C(=O)N[C@H](CC(C)C)C(=O)N[C@H](CCCNC(=N)N)C(=O)N[C@H](CO)C(=O)N[C@H](CC(C)C)C(=O)N[C@H](CC(C)C)C(=O)N[C@H](CCCNC(=N)N)C(=O)N[C@@H](C(=O)N[C@H](CC(C)C)C(=O)N[C@H](CO)C(=O)N[C@H](CCCNC(=N)N)C(=O)N[C@H](C)C(=O)N[C@H](CCCCN)C(=O)N[C@H](C)C(=O)N[C@H](C)C(=O)N[C@H](CCCCN)C(=O)N[C@H](CC(C)C)C(=O)N[C@H](CCCNC(=N)N)C(=O)N[C@@H](C(=O)N[C@H](CC(C)C)C(=O)N[C@H](CC(C)C)C(=O)N[C@H](CCCNC(=N)N)C(=O)N[C@H](C)C(=O)N[C@H](CC(C)C)C(=O)N[C@H](CO)C(=O)N[C@H](CCCNC(=N)N)C(N)=O)[C@H](C)O)[C@H](C)O [D87(Lys^1-6Arg-1), Ac-KL(Arg)SLL(Arg)TLS(Arg)AKAAKL(Arg)TLL(Arg)ALS(Arg)-amide] | 1.3 µM (≈ 3.94 µg/mL) | 1.3 µM (≈ 3.94 µg/mL) | 0.7 µM (≈ 2.12 µg/mL) | 0.7 µM (≈ 2.12 µg/mL) | 0.7 µM (≈ 2.12 µg/mL) | 0.7 µM (≈ 2.12 µg/mL) | 0.7 µM (≈ 2.12 µg/mL)
CC(=O)N[C@H](CCCCN)C(=O)N[C@H](CC(C)C)C(=O)N[C@@H](CCN)C(=O)N[C@H](CO)C(=O)N[C@H](CC(C)C)C(=O)N[C@H](CC(C)C)C(=O)N[C@@H](CCN)C(=O)N[C@@H](C(=O)N[C@H](CC(C)C)C(=O)N[C@H](CO)C(=O)N[C@H](C)C(=O)N[C@H](C)C(=O)N[C@H](CCCCN)C(=O)N[C@@H](CCN)C(=O)N[C@@H](CCN)C(=O)N[C@H](CCCCN)C(=O)N[C@H](CC(C)C)C(=O)N[C@H](C)C(=O)N[C@@H](C(=O)N[C@H](CC(C)C)C(=O)N[C@H](CC(C)C)C(=O)N[C@@H](CCN)C(=O)N[C@H](C)C(=O)N[C@H](CC(C)C)C(=O)N[C@H](CO)C(=O)N[C@@H](CCN)C(N)=O)[C@H](C)O)[C@H](C)O [D89(Lys^1-6 Dab-2), Ac-KL(L-Dab)SLL(L-Dab)TLSAAK(L-Dab)(L-Dab)KLATLL(L-Dab)ALS(L-Dab)-amide] (Ac-[dK][dL][Dab][dS][dL][dL][Dab][dT][dL][dS][dA][dA][dK][Dab][Dab][dK][dL][dA][dT][dL][dL][Dab][dA][dL][dS][Dab]-NH2) | 0.7 µM (≈ 1.89 µg/mL) | 0.7 µM (≈ 1.89 µg/mL) | 0.7 µM (≈ 1.89 µg/mL) | 0.7 µM (≈ 1.89 µg/mL) | 0.7 µM (≈ 1.89 µg/mL) | 0.7 µM (≈ 1.89 µg/mL) | 0.7 µM (≈ 1.89 µg/mL)
CC(=O)N[C@H](CCCCN)C(=O)N[C@H](CC(C)C)C(=O)N[C@H](CCCN)C(=O)N[C@H](CO)C(=O)N[C@H](CC(C)C)C(=O)N[C@H](CC(C)C)C(=O)N[C@H](CCCN)C(=O)N[C@@H](C(=O)N[C@H](CC(C)C)C(=O)N[C@H](CO)C(=O)N[C@H](CCCN)C(=O)N[C@H](C)C(=O)N[C@H](CCCCN)C(=O)N[C@H](C)C(=O)N[C@H](C)C(=O)N[C@H](CCCCN)C(=O)N[C@H](CC(C)C)C(=O)N[C@H](CCCN)C(=O)N[C@@H](C(=O)N[C@H](CC(C)C)C(=O)N[C@H](CC(C)C)C(=O)N[C@H](CCCN)C(=O)N[C@H](C)C(=O)N[C@H](CC(C)C)C(=O)N[C@H](CO)C(=O)N[C@H](CCCN)C(N)=O)[C@H](C)O)[C@H](C)O [D85(Lys^1-6Orn-1), Ac-KL(Orn)SLL(Orn)TLS(Orn)AKAAKL(Orn)TLL(Orn)ALS(Orn)-amide] | 0.7 µM (≈ 1.95 µg/mL) | 0.7 µM (≈ 1.95 µg/mL) | 0.7 µM (≈ 1.95 µg/mL) | 0.4 µM (≈ 1.11 µg/mL) | 0.4 µM (≈ 1.11 µg/mL) | 0.4 µM (≈ 1.11 µg/mL) | 0.4 µM (≈ 1.11 µg/mL)
CC(=O)N[C@H](CCCCN)C(=O)N[C@H](CC(C)C)C(=O)N[C@@H](CCN)C(=O)N[C@H](CO)C(=O)N[C@H](CC(C)C)C(=O)N[C@H](CC(C)C)C(=O)N[C@@H](CCN)C(=O)N[C@@H](C(=O)N[C@H](CC(C)C)C(=O)N[C@H](CO)C(=O)N[C@H](C)C(=O)N[C@H](C)C(=O)N[C@H](CCCCN)C(=O)N[C@@H](CCN)C(=O)N[C@@H](CCN)C(=O)N[C@H](CCCCN)C(=O)N[C@H](CC(C)C)C(=O)N[C@H](C)C(=O)N[C@@H](C(=O)N[C@H](CC(C)C)C(=O)N[C@H](CC(C)C)C(=O)N[C@@H](CCN)C(=O)N[C@H](C)C(=O)N[C@H](CC(C)C)C(=O)N[C@H](CO)C(=O)N[C@H](CO)C(N)=O)[C@H](C)O)[C@H](C)O [D104(Lys^1Ser^26-5 Dab-2), Ac-KL(L-Dab)SLL(L-Dab)TLSAAK(L-Dab)(L-Dab)KLATLL(L-Dab)ALS(Ser)-amide] (Ac-[dK][dL][Dab][dS][dL][dL][Dab][dT][dL][dS][dA][dA][dK][Dab][Dab][dK][dL][dA][dT][dL][dL][Dab][dA][dL][dS][dS]-NH2) | 0.7 µM (≈ 1.88 µg/mL) | 0.7 µM (≈ 1.88 µg/mL) | 0.7 µM (≈ 1.88 µg/mL) | 0.7 µM (≈ 1.88 µg/mL) | 1.5 µM (≈ 4.03 µg/mL) | 0.7 µM (≈ 1.88 µg/mL) | 0.7 µM (≈ 1.88 µg/mL)
CC(=O)N[C@H](CCCCN)C(=O)N[C@H](CC(C)C)C(=O)N[C@H](CCCCN)C(=O)N[C@H](CO)C(=O)N[C@H](CC(C)C)C(=O)N[C@H](CC(C)C)C(=O)N[C@H](CCCCN)C(=O)N[C@@H](C(=O)N[C@H](CC(C)C)C(=O)N[C@H](CO)C(=O)N[C@H](C)C(=O)N[C@H](C)C(=O)N[C@H](CCCCN)C(=O)N[C@H](CCCCN)C(=O)N[C@H](CCCCN)C(=O)N[C@H](CCCCN)C(=O)N[C@H](CC(C)C)C(=O)N[C@H](C)C(=O)N[C@@H](C(=O)N[C@H](CC(C)C)C(=O)N[C@H](CC(C)C)C(=O)N[C@H](CCCCN)C(=O)N[C@H](C)C(=O)N[C@H](CC(C)C)C(=O)N[C@H](CO)C(=O)N[C@H](CO)C(N)=O)[C@H](C)O)[C@H](C)O [D103(Lys^1Ser^26-5 Lys-2), Ac-KL(Lys)SLL(Lys)TLSAAK(Lys)(Lys)KLATLL(Lys)ALS(Ser)-amide] (Ac-[dK][dL][dK][dS][dL][dL][dK][dT][dL][dS][dA][dA][dK][dK][dK][dK][dL][dA][dT][dL][dL][dK][dA][dL][dS][dS]-NH2) | 0.7 µM (≈ 1.98 µg/mL) | 0.7 µM (≈ 1.98 µg/mL) | 0.7 µM (≈ 1.98 µg/mL) | 0.7 µM (≈ 1.98 µg/mL) | 0.7 µM (≈ 1.98 µg/mL) | 0.7 µM (≈ 1.98 µg/mL) | 0.7 µM (≈ 1.98 µg/mL)
